Square brackets hold non-standard residues; d marks the D form. Peptide text beside a SMILES is read from it. * marks the point of attachment. Dolaproine = CO[C@@H]([C@@H]1CCCN1)[C@@H](C)C(=O)O; Dil = CC[C@H](C)[C@H](NC)[C@@H](CC(=O)O)OC; X1 = C[C@@H](N*)[C@@H](O)c1ccccc1; NMeV = CN[C@H](C(=O)O)C(C)C
What was measured:
[1] = LCMS analysis of drug release by tetrazines; conditions: tetrazine 20 μM, TCO-MMAE 10 μM in PBS
Description: A solution of each tetrazine (20 μM final concentration) in PBS is mixed with TCO-MMAE (10 μM final concentration). The solution is mixed thoroughly and an aliquot removed at the appropriate time for analysis by LCMS.

NCI-N87 xenograft = assay: Efficacy study in subcutaneous NCI-N87 xenograft model in CB17 SCID mice; format: in vivo, mice (Mus musculus); conditions: for mean tumor size on day 35: vehicle 1009 mm^3; for TGI: P<0.05 vs vehicle
Description: Methods: 110 CB17 SCID female mice (Mus musculus; age: 6-8 weeks; body weight: 18-22 g; Shanghai LingChang Biotech Co., LTD) were inoculated subcutaneously at right flank with NCI-N87 cells (3×10^6 cells was suspended in 0.2 mL mixture of 1640 with (1640: Matrigel=1:1) BD Matrigel for tumor development). After 7 days inoculation, 70 animals were divided into 8 groups with 10 animals in group 1, 2, 5, 6, 7 and 8, and with 5 animals in group 3 and 4 using stratified random grouping based on their body weight and tumor volume. The treatments were started from the mean tumor size reached to 158 mm^3 (106-221 mm^3) for these 70 mice. Group 1: Vehicle, i.v., QD×3×2 weeks. Group 2: MMAE, 0.25 mpk, i.v., QW×2 weeks. […] Group 4: Compound A, 20 mpk, i.v., QD×3×2 weeks. […] Group 7: SQL70, 100 μL, i.t.×1 dose+Compound A, 1.9 mpk, i.v., QD×5. Group 8: T-DM1, 3 mpk, i.v., QW×2 weeks. The tumor sizes and body weight were measured twice a week during the treatment. The dosing schedule was finished on day PG-D10. The entire study was terminated on PG-D37 and collected all the tumor samples for group 5 and 6, and 3 tumors/group for group 1 and 2.
Experimental Methods and Procedures: Cell preparation and implantation: The NCI-N87 (Gastric carcinoma, ATCC® CRL-5822™, Lot No. 7686255) cells were maintained in vitro as a monolayer culture in RPMI-1640 medium supplemented with 10% heat inactivated fetal bovine serum, 100 U/mL penicillin and 100 μg/mL streptomycin at 37° C. in an atmosphere of 5% CO2 in air. The tumor cells were routinely sub-cultured per 5 days by trypsin-EDTA treatment. The cultured NCI-N87 cells were harvested, re-suspended in base medium at a density of 1.5×10^7 cells/mL with viability >90%. Each mouse was inoculated subcutaneously at the right flank with 3×10^6 in 0.2 mL mixture of 1640 with (1640: Matrigel=1:1) BD Matrigel for tumor development.
Randomization and administration: The treatments were started from the mice were grouped based on their mean tumor size reached 158 mm^3 (106-221 mm^3) for group 1-8. Each group consisted of 10 or 5 mice. The test article was administrated to the mice according to the regimen as shown in the experimental design table (Table 4).
Tumor Measurements and Endpoints: The major endpoint is to see if the tumor growth can be delayed or mice can be cured. […] The tumor sizes were then used for the calculations of both tumor growth inhibition (TGI) values.
The T/C value (in percent) is an indication of antitumor effectiveness, T/C (%)=RTVTreatment/RTVControl×100% (RTVTreatment: the mean RTV of the treatment group; RTVControl: the mean RTV of the vehicle treated group). RTV (relative tumor volume)=TVDayN/TVDay0. TVDayN and TVDay0 is the tumor volume on day N and Day 0 respectively. T/C (%)≤42% is considered as significant antitumor activity and <10% is considered as highly significant antitumor activity by the United States National Cancer Institute criteria.
Statistical Analysis: The tumor volume between different groups was analyzed by two-way repeated measures ANOVA followed by the Tukey's post hoc test. All data were analyzed using GraphPad Prism 6.0. P<0.05 is considered to be statistically significant.

[2] = Group 4: Compound A 20 mpk i.v. QD×3×2 weeks, day 35
[3] = Group 2: MMAE 0.25 mpk i.v. QW×2 weeks, day 35

Molecule	% TCO-MMAE consumed (1 h) [1]	% MMAE released (24 h) [1]	other results
Cc1nnc(-c2cn(C)cn2)nn1	74%	40%	–
Cc1nnc(-c2ccc(CN)c(C(F)(F)F)c2)nn1	100%	51%	–
T-DM1	–	–	mean tumor size on day 35 (NCI-N87 xenograft; Group 8: T-DM1 3 mpk i.v. QW×2 weeks, day 35): 873 mm^3
CC[C@H](C)[C@@H](C(CC(=O)N1CCC[C@H]1[C@H](OC)[C@@H](C)C(=O)N[C@H](C)[C@@H](O)c1ccccc1)OC)N(C)C(=O)[C@@H](NC(=O)[C@H](C(C)C)N(C)C(=O)O[C@H]1/C=C/CC[C@@](C)(C(=O)O)CC1)C(C)C (stereo partly drawn) [Compound A]	–	–	T/C (NCI-N87 xenograft; [2]): 62.12%; TGI (NCI-N87 xenograft; [2]): 41.74%; mean tumor size on day 35 (NCI-N87 xenograft; Group 4: Compound A 20 mpk i.v. QD×3×2 weeks, day 35 after grouping): 653 mm^3
Cc1nnc(-n2cccn2)nn1	81%	35%	–
Cc1nnc(-c2ccccn2)nn1	100%	28%	–
Cc1nnc(-c2ccc(C(F)(F)F)c(CN)c2)nn1	100%	46%	–
CC[C@H](C)[C@@H]([C@@H](CC(=O)N1CCC[C@H]1[C@H](OC)[C@@H](C)C(=O)N[C@H](C)[C@@H](O)c1ccccc1)OC)N(C)C(=O)[C@@H](NC(=O)[C@@H](NC)C(C)C)C(C)C [MMAE] (H-[NMeV]V[Dil][Dolaproine]-X1)	–	–	T/C (NCI-N87 xenograft; [3]): 57.50%; TGI (NCI-N87 xenograft; [3]): 49.68%; mean tumor size on day 35 (NCI-N87 xenograft; Group 2: MMAE 0.25 mpk i.v. QW×2 weeks, day 35 after grouping): 586 mm^3
Cc1nnc(-c2ncccn2)nn1	100%	29%	–
Cc1nnc(-c2cocn2)nn1	42%	62%	–

— patent publication US20250186592A1, “TETRAZINE CONJUGATES FOR IN VIVO TARGETED DELIVERY OF A PAYLOAD” (Tambo, Inc., priority 2021, published 2025)
